From PMC9241695, “Selective Metal Chelation by a Thiosemicarbazone Derivative Interferes with Mitochondrial Respiration and Ribosome Biogenesis in Candida albicans” (Microbiology Spectrum, 2022)
Values after ≈ are worked out from the molar mass of the structure shown.

Legend:
C. parapsilosis CP001 = test: Microbroth dilution MIC80; format: cell-based, Candida parapsilosis; conditions: Lodderomyces parapsilosis, CP001
Description: Compound library. The thiosemicarbazone derivatives Triapine and COTI-2 were purchased from Med Chem Express (MCE). The other 87 thiosemicarbazones used in this study were previously synthesized by our collaborators (1, 2). Their structures are shown in Table 1 and Table S1 to help the reader clearly understand the relationship between structure and activity.
Strains and culture conditions. Clinically derived C. albicans isolates, including G5, F5, and Gu5, were kindly provided by Professor Joachim Morschhäuser of the University of Würzburg. Other clinical C. albicans isolates were kindly donated by Professor Qingguo Qi of Shandong University and Qianfoshan Hospital of Shandong Province Other Candida strains were obtained from Jinan Central Hospital.
The zap1 mutant and its complemented strain were kindly provided by Professor Aaron P. Mitchell of Carnegie Mellon University (3). The C. neoformans strains used in this study was kindly donated by Professor Guojian Liao of Southwest University and A. fumigatus strain used in this study was provided by Professor Ling Lu of Nanjing Normal University. Before in vitro and in vivo experiments, all C. albicans strains were grown on YPD agar plates. After culturing at 30°C for 24 h, colonies of each strain were cultured in liquid YPD medium at 30°C with continuous shaking […]
Antifungal susceptibility testing. To determine in vitro antifungal activities, the microbroth dilution method was carried out in RPMI1640 medium according to the guidelines of the Clinical and Laboratory Standards Institute (4, 5). The initial concentration in RPMI1640 medium was 1 × 10^3 CFU/mL for the C. albicans and C. neoformans suspensions but 1 × 10^4 CFU/mL for A. fumigatus. The range of final drug concentrations was 0.0156–64 μg/mL. The plates were incubated at35°C for 24 […]
h (for C. albicans, C. krusei, C. tropicalis, C. parapsilosis) or 48 h (for C. neoformans, A. fumigatus). The MIC was determined based on visible growth inhibition compared with the control. All experiments were performed in duplicate. […]

[1] = Cytotoxicity testing (MTT); format: cell-based, human; conditions: human, HepG2 cells (hepatocellular carcinoma cell line)
[2] = system: human hepatocellular carcinoma cell line HepG2; test: Cytotoxicity testing (MTT); format: cell-based; conditions: ratio of IC50 against HepG2 to MIC80 against C. albicans SC5314
C. albicans SC5314 = test: RNA-seq transcriptional analysis; format: cell-based, Candida albicans
Description: C. albicans SC5314 cells were inoculated into RPMI 1640 medium at a concentration of 1 × 10^7 cells/mL and incubated at 30°C for 6 h. The cells were then harvested, and RNA extraction was performed with the Yeast RNA Kit (OMEGA, Guangzhou, China). RNA purity was evaluated using a Nanodrop-2000, and RNA integrity was assessed using the RNA Nano 6000 detection kit. RNA-Seq libraries are prepared using NEB Next Ultra RNA Library Prep Kit (NEB, MA, USA) for Illumina. The cDNA library quality was quantified first by using Qubit 2.0 Fluorometer, detected on Agilent 2100 bioanalyzer. Clustering was performed in the cBot cluster generation system. After cluster generation, the library preparations were sequenced on the Illumina Novaseq platform. Library construction and sequencing were performed by Novogene (Beijing, China). Each sample was analyzed in triplicate.
The raw data in fastq format were first processed by an internal perl script. In this step, clean data were obtained by applying various processing methods. […] The clean reads were individually mapped to the C. albicans SC5314 reference genome using HISAT2 (v2.0.5). The fragments per kilobase of transcript per million mapped reads (FPKM) value was calculated for each gene, and the read counts were mapped to the genes. […] Genes with an adjusted P value < 0.05 and |log2FoldChange| > 1 as detected by DESeq2 were considered DEGs. […]

SOD = SOD activity in treated cells; format: cell-based, Candida albicans; conditions: 0.5 μg/mL or above, 6 h
Description: Determination of SOD activity. SOD activity was measured using the Superoxide Dismutase Activity Assay Kit (Njjcbio, Nanjing, China) following the manufacturer's instructions. An overnight culture of C. albicans SC5314 was adjusted to 1 × 10^7 cells/mL with RPMI1640 medium and treated with 19ak at a final concentration of 0, 0.125, 0.25, 0.5, or 1 μg/mL for 6 h. After collection by centrifugation, the cells were broken by glass beads in extraction buffer and centrifuged at 4°C. The absorbance of the supernatant of each sample was measured with a microplate reader at450 nm.
Determination of catalase (CAT) activity. CAT activity was measured by using a Catalase Assay Kit (Solarbio, Beijing, China) following the manufacturer's instructions. An overnight culture of C. albicans SC5314 was adjusted to 1 × 10^6 cells/mL with RPMI1640 medium and treated as described above for SOD activity.
The decomposition of H2O2 is directly accompanied by a decrease in absorbance at 240 nm, and the difference in absorbance per unit time (ΔA240) is a measure of […]
Quantitative real-time polymerase chain reaction (qPCR) analysis. C. albicans SC5314 cells (1 × 10^6 cells/mL) were incubated with or without 19ak (0.5,2 μg/mL) in RPMI1640 medium for 6 h. Total RNA was extracted using the hot phenol method, and the RNA quality was analyzed using a spectrophotometer (Eppendorf, Hamburg, Germany). […]

C/C(=N\NC(=S)N(C)C)c1ccccn1 [Compound 19ak]
MIC80 (C. parapsilosis CP001): 0.125 µg/mL (≈ 0.562 µM) | IC50 [1]: 10.3 µg/mL (≈ 46.3 µM) | Selectivity index HepG2 [2]: 82.4 | Expression of genes involved in iron and zinc acquisition (C. albicans SC5314; high dose (2 μg/mL)): downregulated | Expression of genes involved in iron and zinc acquisition (C. albicans SC5314; low dose (0.5 μg/mL)): strongly induced | SOD activity (SOD): increased
